Laboratory results: the supplement of paper PMC13380429

Legend:
Conditions in all cases: 72 h
[1] = test system: Vero E6; test: drug sensitivity score (DSS) for viability; higher = more toxic; extreme values may be limits of the assay
[2] = test system: Caco-2; test: as above
[3] = test system: HepG2; test: as above
[4] = test system: Calu-3; test: as above
[5] = test system: U2OS; test: as above
[6] = test system: Vero E6; test: cell viability relative to DMSO; higher = less toxic
[7] = test system: Caco-2; test: as above
[8] = test system: HepG2; test: as above
[9] = test system: Calu-3; test: as above
[10] = test system: U2OS; test: as above
[11] = test system: Vero E6; test: relative viability EC50 (midpoint between 100% and the lowest measured viability); higher = less toxic
[12] = test system: Caco-2; test: as above
[13] = test system: HepG2; test: as above
[14] = test system: Calu-3; test: as above
[15] = test system: U2OS; test: as above

Compound | drug sensitivity score [1] | drug sensitivity score [2] | drug sensitivity score [3] | drug sensitivity score [4] | drug sensitivity score [5] | cell viability ([6]; 1 nM) [%] | cell viability ([6]; 10 nM) [%] | cell viability ([6]; 100 nM) [%] | cell viability ([6]; 1000 nM) [%] | cell viability ([6]; 10000 nM) [%] | cell viability ([7]; 1 nM) [%] | cell viability ([7]; 10 nM) [%] | cell viability ([7]; 100 nM) [%] | cell viability ([7]; 1000 nM) [%] | cell viability ([7]; 10000 nM) [%] | cell viability ([8]; 1 nM) [%] | cell viability ([8]; 10 nM) [%] | cell viability ([8]; 100 nM) [%] | cell viability ([8]; 1000 nM) [%] | cell viability ([8]; 10000 nM) [%] | cell viability ([9]; 1 nM) [%] | cell viability ([9]; 10 nM) [%] | cell viability ([9]; 100 nM) [%] | cell viability ([9]; 1000 nM) [%] | cell viability ([9]; 10000 nM) [%] | cell viability ([10]; 1 nM) [%] | cell viability ([10]; 10 nM) [%] | cell viability ([10]; 100 nM) [%] | cell viability ([10]; 1000 nM) [%] | cell viability ([10]; 10000 nM) [%] | relative viability EC50 [11] [µM] | relative viability EC50 [12] [µM] | relative viability EC50 [13] [µM] | relative viability EC50 [14] [µM] | relative viability EC50 [15] [µM]
O=C(OCCN1CCCCC1)c1c[nH]c2ccccc12 | 0 | 0 | 0 | 0 | 0 | 98.7 | 95.6 | 95.4 | 95.8 | 104 | 99.3 | 97.2 | 95.3 | 96.3 | 99.4 | 102 | 93.8 | 98.2 | 106 | 94.4 | 106 | 104 | 97.7 | 103 | 91.3 | 96.8 | 104 | 97.6 | 102 | 94.3 | > 10 | > 10 | > 10 | > 10 | > 10
COc1cc2cc(c1Cl)N(C)C(=O)C[C@H](OC(=O)C(C)C)[C@]1(C)O[C@@H]1[C@H](C)[C@@H]1C[C@@](O)(NC(=O)O1)[C@H](OC)/C=C/C=C(\C)C2 [ansamitocin-p-3] | 35 | 28.4 | 33.8 | 27.7 | 37.6 | 72.1 | 32.5 | 29.8 | 21.2 | 18.4 | 45 | 47.9 | 39 | 40.9 | 35.1 | 39 | 32.4 | 38 | 33.8 | 30.9 | 62.6 | 53.6 | 36.7 | 37.4 | 37.8 | 39.6 | 29.1 | 19.9 | 17.9 | 16.3 | 0.0021 | < 0.001 | < 0.001 | < 0.001 | < 0.001
COc1ccccc1NC(=O)OCC1CCN(C(=O)OC(C)(C)C)CC1 | 0 | 0 | 0 | 0 | 0 | 97.4 | 102 | 99.8 | 99.2 | 95.2 | 89.2 | 96.2 | 101 | 97.9 | 97.9 | 111 | 108 | 100 | 94.5 | 104 | 108 | 102 | 94.5 | 109 | 108 | 96.8 | 99 | 94.4 | 99.1 | 94.7 | > 10 | > 10 | > 10 | > 10 | > 10
CC(C)NCCCn1c(Sc2cc3c(cc2I)OCO3)nc2c(N)ncnc21 [PU-H71] | 4.9 | 6.2 | 20.8 | 8.5 | 12.9 | 102 | 105 | 105 | 92.8 | 33.2 | 89.9 | 104 | 106 | 74 | 47.1 | 101 | 95.3 | 82.8 | 0.3 | 0.4 | 97.7 | 107 | 100 | 55.3 | 41.1 | 94.4 | 97.5 | 95.6 | 37.8 | 3.8 | 2.27 | 1.02 | 0.186 | 0.634 | 0.686
NC(=O)c1cccc(-c2cc(Nc3ccc(OC(F)(F)F)cc3)ncn2)c1 [GNF-2] | 0 | 1.3 | 1.3 | 0.5 | 0 | 104 | 99 | 94.6 | 106 | 102 | 102 | 102 | 104 | 87.1 | 83.7 | 108 | 99.6 | 93.4 | 96.4 | 77.3 | 104 | 103 | 97.9 | 90.3 | 86.6 | 103 | 99.2 | 99.1 | 102 | 103 | > 10 | > 10 | > 10 | > 10 | > 10
CC(C)=CCC[C@](C)(O)[C@@H]1CC=C(C)CC1 [levomenol] | 0 | 0 | 0 | 0 | 0 | 94.6 | 96.5 | 99 | 98.8 | 108 | 101 | 103 | 82.6 | 110 | 95.1 | 99.8 | 100 | 116 | 98.1 | 106 | 97.9 | 98.2 | 97.2 | 94.3 | 100 | 96.2 | 100 | 96.4 | 104 | 103 | > 10 | > 10 | > 10 | > 10 | > 10
N#CC(Cc1ccc(O)cc1)c1ccc(O)cc1 (stereo not given) [diarylpropionitrile] | 0 | 0 | 0 | 0 | 0 | 99.4 | 104 | 99.1 | 102 | 94.8 | 99 | 103 | 88.4 | 100 | 95.3 | 98.7 | 90.3 | 99.6 | 89.2 | 102 | 108 | 91.2 | 100 | 94.3 | 103 | 99.6 | 99.4 | 98.7 | 102 | 102 | > 10 | > 10 | > 10 | > 10 | > 10
